Where two headings read alike, the source gives them in different places.
What was measured:
[1] = tested on: 82 cell lines representing more than 20 tumor types; test: Screen of a further 82 cell lines (8-point serial dilution); type: cell-based
Description: In order to determine if there were additional cell lines that were profoundly sensitive to this compound, a further 82 cell lines were screened which represented more than 20 different tumor types of origin. […] Without wishing to bound by a particular theory, these three additional cell lines are all acute myeloid leukemic lines that have different activating mutations in oncogenes that have been associated with elevated PI3K activity. MV4-11 has the FLT3 internal tandem duplication (ITD) and Kasumi-1 has amplified and mutated c-kit as well as the AML-ETO gene fusion. […] All three lines have wild-type PTEN but have shown to express very low levels of PTEN protein, which makes them functionally deficient for PTEN.

[2] = target: PDK1 (Homo sapiens (Human), UniProt O15530); test: PDK1 ATP Depletion Kinase Assay (Kinase-Glo luminescence); type: biochemical; conditions: PDKtide substrate, read-out: PDK1 Kinase assays (IC50, μM) Activity Assay
Experimental: Test compounds were diluted to desired concentrations in kinase reaction buffer and briefly incubated with human recombinant PDK1 kinase which is histidine-tagged (Invitrogen Corporation, Carlsbad, Calif.). The reaction was subsequently initiated by the addition of ATP and PDKtide substrate (Millipore Corporation, Billerica, Massachussetts). […] After an incubation of 60 minutes at room temperature, 10 μl of the Kinase-Glo reagent (Promega Corporation, Madison, Wis.) was added to each well and incubated for an additional 10 minutes. Luminescence was measured on an EnVision microplate reader (PerkinElmer). The amount of luminescence from each reaction is inversely correlated with PDK1 kinase activity. Percent inhibition and IC50 values can be calculated by comparing enzyme activity in drug-treated wells to the appropriate controls, e.g. vehicle control.
IC50 values are determined using GraphPad Prism 5 software. The data were entered as an X-Y plot into the software as percent inhibition for each concentration of the drug. The concentration values of the drug were log transformed and the nonlinear regression was carried out using the “sigmoidal dose-response (variable slope)” option within the GraphPad software to model the data and calculate IC50 values.

[3] = Mouse xenograft study, body weight; type: in vivo, athymic nude mice; conditions: 50 mg/kg IP, daily Monday through Friday for two weeks
Experimental: The in vivo effects of compounds were determined in a mouse subcutaneous xenograft tumor model wherein AN3-CA cells were implanted subcutaneously into the hind flank of athymic nude mice. Briefly, seven-week-old mice were injected with 2×10^6 AN3-CA cells on the right hind flank. […] The vehicle for these studies was 20% DMSO, 20% cremophor, and 60% water. The test compound was administered on daily schedule (Monday through Friday) for two weeks at a concentration of 50 mg/kg by intraperitoneal (“IP”) injection. The mice were sacrificed and the tumors were excised for western blot analysis. Tumor volume was determined using the formula L×W2×0.5, where L is the longest length, and W is the shortest length. Tumor volume and body weight was measured twice a week.
The study was carried out as described above for 2,2-difluoro-N-(3-(5-morpholino-1H-benzo[d]imidazol-2-yl)-1H-indazol-5-yl)cyclopropanecarboxamide, except that the test compound used was 2,2-difluoro-N-(3-(5-(2-methylmorpholino)-1H-benzo[d]imidazol-2-yl)-1H-indazol-5-yl)cyclopropanecarboxamide. Data are shown in FIGS. 10A and 10B for the effect of the compound on tumor volume and body weight, respectively.

[4] = tested on: AGS; test: Cell viability assay, cancer cell line panel; type: cell-based; conditions: Homo sapiens, mutation KRAS, PIK3CA
[5] = tested on: HS578T cell line; test: Cell viability after PTEN shRNA knockdown; type: cell-based; conditions: Homo sapiens, Hs-578T
Experimental: The lentiviral particles with PTEN shRNA or scrambled siRNA (ssi RNA) were purchased from Thermo Scientific. The cells were seeded in a 24-well plate and incubated overnight in RPMI full media. The media was removed and the cells were transfected with either siRNA or ssiRNA particles in serum/antibiotic free RPMI media. Six hours post-transduction, 1 ml of full media (serum plus penicillin/streptomycin) was added and the cells were incubated overnight. At 48 hours post-transduction fresh media with puromycin was added. The media was replaced with fresh puromycin containing media every 2 days. qPCR and western blot analysis was used to evaluate the level of PTEN knockdown.
AN3-CA (PTEN-deficient), RL95-2 (PTEN-deficient), and HEC-1A (PTEN-wild type) cells were plated in 45 μl of RPMI-1640 media supplemented with 10% FBS and 1% Pen/Strep at a density of 1000 cells per well in white 384-well plates. Cells were allowed to attach by incubation overnight at 37° C. and 5% CO2. Test compounds were diluted to 10× concentrations in RPMI-1640 media (containing 3% DMSO) and 5 μl 1 of these dilutions were added in triplicate to the appropriate wells containing the cells. The plates containing the drug-treated cells and appropriate controls were incubated for 96 hours. At the end of the incubation, 40 μl of ATP-lite (PerkinElmer, Inc., Waltham, Massachussetts) reagent were added to each well and luminescence signal was measured on an EnVision microplate reader.
In the figures, cell viability is shown as “Toxicity” and the cell viability assay was carried out as described above.

[6] = tested on: H1975; test: Cell viability assay, cancer cell line panel; type: cell-based; conditions: Homo sapiens, NCI-H1975; mutation PIK3CA
[7] = tested on: 786-O; test: Cell viability assay, cancer cell line panel; type: cell-based; conditions: Homo sapiens, 786-0; mutation PTEN
[8] = tested on: phosphorylation of the ribosomal protein s6 in AN3-CA cells; test: In-cell western, phosphorylation of ribosomal protein s6; type: cell-based; conditions: Homo sapiens, 2 hours
Experimental: Cells were washed with PBS and whole cell lysates were prepared by incubating cells in […] (Invitrogen Corporation, Carlsbad, Calif.) supplemented with Protease Inhibitor Cocktail (Roche Applied Science, a division of Roche Diagnostics Corporation, Indianapolis, Ind.) and Phosphatase Inhibitor Cocktail (Roche) on ice for 30 minutes. After centrifuging the lysates at 12,000 rpm for 10 minutes at 4° C., the supernatant was collected. Protein concentration was determined using BCA Assay. The same amounts of protein were run on NuPAGE 4-12% Bis-Tris Gel, and then transferred onto a PVDF membrane. After blocking with Odyssey Blocking Buffer for 1 hour at room temperature, the membrane was incubated with primary antibodies (Cell Signaling Technology, Inc., Danvers, Massachussetts) overnight at 4° C. followed by 40 minute incubation with IRDye secondary antibody. The membrane was scanned using Odyssey Infrared Imaging System. […]
Briefly, ribosomal protein S6 was detected using differentially labeled antibodies specific for either total S6 protein or the phosphorylated form of the protein. In-cell detection with visual overlay of the signals for each antibody, e.g. total ribosomal protein s6 (red) and phospho-ribosomal protein s6 (green), allowed simultaneous detection and quantitation. Quantitation of signal intensity allowed determination of IC50 values for the test compounds.

[9] = PTEN knockdown shRNA, read-out: IC50 for cell viability, PTEN knockdown shRNA cells

Sequence of PDK1 (O15530 whole entry): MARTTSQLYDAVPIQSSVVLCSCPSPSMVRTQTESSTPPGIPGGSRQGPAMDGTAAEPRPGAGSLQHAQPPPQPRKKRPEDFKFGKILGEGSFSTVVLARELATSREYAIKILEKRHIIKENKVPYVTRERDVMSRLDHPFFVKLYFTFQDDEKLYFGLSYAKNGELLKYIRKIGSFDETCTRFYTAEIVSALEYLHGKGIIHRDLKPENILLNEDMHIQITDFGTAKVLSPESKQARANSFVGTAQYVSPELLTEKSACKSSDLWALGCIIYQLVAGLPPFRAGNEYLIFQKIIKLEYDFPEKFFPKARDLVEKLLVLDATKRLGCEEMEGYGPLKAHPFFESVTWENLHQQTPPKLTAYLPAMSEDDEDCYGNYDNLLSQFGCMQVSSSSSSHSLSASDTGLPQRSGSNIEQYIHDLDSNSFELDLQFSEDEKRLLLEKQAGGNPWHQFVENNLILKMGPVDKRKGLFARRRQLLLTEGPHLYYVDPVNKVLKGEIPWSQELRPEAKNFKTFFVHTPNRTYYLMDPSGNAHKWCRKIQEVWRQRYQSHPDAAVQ

In the case of `O=C(Nc1ccc2[nH]nc(-c3nc4ccc(N5CCOCC5)cc4[nH]3)c2c1)C1CC1(F)F` (stereo not drawn) [Compound 1, 2,2-difluoro-N-(3-(5-morpholino-1H-benzo[d]imidazol-2-yl)-1H-indazol-5-yl)cyclopropanecarboxamide], the “IC50 in 9 of the 82 cell lines” value ([1]; 9 cell lines) is reported as “hundreds of nano-molar range”, the IC50 ([1]; 68 of the cell lines, 10 μM down to 3 nM, read-out: IC50 in 68 of the 82 cell lines) is reported as greater than 1000 nM and the IC50 ([1]; read-out: IC50 in 5 cell lines) is reported as less than 100 nM. The IC50 [2] was 0.143 µM, the “Effect on body weight” value [3] was “did not appear to cause any body weight loss” and the IC50 [4] was 2770 nM. For the same molecule, the IC50 [5, 9] was 1200 nM, the IC50 [6] was 9860 nM and the IC50 [7] was 6010 nM. For the same molecule, the IC50 [8] was 75.6 nM.
In the case of `CC1CN(c2ccc3nc(-c4n[nH]c5ccc(NC(=O)C6CC6(F)F)cc45)[nH]c3c2)CCO1` (stereo not drawn) [Compound 2, 2,2-difluoro-N-(3-(5-(2-methylmorpholino)-1H-benzo[d]imidazol-2-yl)-1H-indazol-5-yl)cyclopropanecarboxamide], the IC50 [2] is reported as 0.159 µM, the “Effect on body weight” value [3] is reported as “did not appear to cause any body weight loss” and the IC50 [5, 9] is reported as 800 nM. It also gave an IC50 ([5]; control (scrambled) treated cells, read-out: IC50 for cell viability, control treated cells) of 2200 nM and an IC50 [8] of 76.7 nM.

Source: US8569511B2, “Substituted 3-(1H-benzo[d]imidazol-2-yl)-1H-indazole analogs as inhibitors of the PDK1 kinase” (University of Utah Research Foundation, priority 2011, dated 2013)
